In brackets after ≈: the same amount, converted by molar mass.
Assays:
Human adenovirus 2 = assay type: functional, organism-based; details: Human mastadenovirus C, HEL
Human respirovirus 3 = assay: Antiviral activity against Parainfluenza 3 in Vero cells reduction of virus-induced cytopathogenicity after 4 days; assay type: functional, organism-based; details: Human respirovirus 3, Vero, 96 h
Coxsackievirus B4 [1] = assay type: functional, organism-based; details: Enterovirus B, Vero
Human alphaherpesvirus 3 [2] = assay type: functional, organism-based; details: Human alphaherpesvirus 3, 07-1, HEL
[3] = system: Mammalian orthoreovirus 1; assay: Antiviral activity against Reovirus 1 in Vero cells reduction of virus-induced cytopathogenicity after 4 days; assay type: functional, organism-based; details: Mammalian orthoreovirus 1, Vero, 96 h
HEL [4] = assay: Cytotoxicity against HEL cells assessed as alteration in morphology after 3 days; assay type: functional; details: Homo sapiens, 72 h
HEL [5] = assay: Cytotoxicity against HEL cells assessed as cell growth after 3 days; assay type: functional, Homo sapiens
[6] = Cytotoxicity against HSB2 cells assessed as alteration in morphology after 3 days; assay type: functional, Homo sapiens, CCRF-HSB-2
Coxsackievirus B4 [7] = assay type: functional, organism-based; details: Enterovirus B, HeLa
[8] = system: Moloney murine sarcoma virus; details: C3H
CCRF-CEM = assay: Cytotoxicity against CEM cells assessed as cell growth after 3 days; assay type: functional; details: Homo sapiens, 72 h
HeLa = assay: Cytotoxicity against HeLa cells assessed as alteration in morphology after 3 days; assay type: functional, cell-based; details: Homo sapiens, 72 h
Sindbis virus = assay: Antiviral activity against Sindbis virus in Vero cells reduction of virus-induced cytopathogenicity after 4 days; assay type: functional, organism-based; details: 96 h
Punta Toro virus = assay: Antiviral activity against Punta Toro virus in Vero cells reduction of virus-induced cytopathogenicity after 4 days; assay type: functional, organism-based; details: 96 h
Human betaherpesvirus 5 [9] = assay type: functional, organism-based; details: Human betaherpesvirus 5, Davis, HEL
Human alphaherpesvirus 3 [10] = assay type: functional, organism-based; details: Human alphaherpesvirus 3, OKA, HEL
Vero = assay: (§1) Cytotoxicity against Vero cells assessed as alteration in morphology after 3 days; assay type: cell-based, Chlorocebus sabaeus; details: Chlorocebus sabaeus, Vero, 72 h
[11] = system: Human immunodeficiency virus 2; assay type: functional, organism-based; details: Human immunodeficiency virus 2, ROD, CCRF-CEM, 96 h
Human betaherpesvirus 5 [12] = assay type: functional, organism-based; details: Human betaherpesvirus 5, AD169, HEL
MOLT-3 = assay: Cytotoxicity against MOLT3 cells assessed as alteration in morphology after 3 days; assay type: functional, Homo sapiens
Human alphaherpesvirus 2 [13] = assay type: functional, organism-based; details: Human alphaherpesvirus 2, Lyons, HEL
[14] = Cytotoxicity against C3H cells assessed as alteration in morphology after 3 days; assay type: cell-based, Mus musculus; details: for EC50: Mus musculus, C3H, 72 h; for MCC at 72 h: mouse, C3H cells
[15] = system: Vesicular stomatitis virus; assay: microbe, parasite or virus in culture; details: HEL
Human alphaherpesvirus 2 [16] = assay type: functional, organism-based; details: Human alphaherpesvirus 2, G, HEL
[17] = system: Vesicular stomatitis virus; assay: microbe, parasite or virus in culture; details: HeLa
[18] = system: Human immunodeficiency virus 1; assay type: functional, organism-based; details: Human immunodeficiency virus 1, 3B, CCRF-CEM, 96 h
[19] = system: Respiratory syncytial virus; assay type: functional, organism-based; details: human respiratory syncytial virus, HeLa
[20] = as §1; assay type: cell-based, Chlorocebus sabaeus; details: chlorocebus sabaeus, Vero cells
[21] = Homo sapiens, HEL, 72 h, read-out: CC50
[22] = Homo sapiens, CCRF-HSB-2, 72 h, read-out: MCC
[23] = Homo sapiens, MOLT-3, 72 h, read-out: MCC

Structure (SMILES)	EC50 (Human adenovirus 2) [µg/mL]	EC50 (Human respirovirus 3) [µg/mL]	EC50 (Coxsackievirus B4 [1]) [µg/mL]	EC50 (Human alphaherpesvirus 3 [2]) [µg/mL]	EC50 [3] [µg/mL]	MCC (HEL [4]) [µg/mL]	CC50 (HEL [5]; [21]) [µg/mL]	MCC [6, 22] [µg/mL]	EC50 (Coxsackievirus B4 [7]) [µg/mL]	EC50 [8] [µg/mL]	EC50 (Sindbis virus) [µg/mL]	EC50 (Punta Toro virus) [µg/mL]	EC50 (Human betaherpesvirus 5 [9]) [µg/mL]	EC50 (Human alphaherpesvirus 3 [10]) [µg/mL]	EC50 (Human betaherpesvirus 5 [12]) [µg/mL]	EC50 (Human alphaherpesvirus 2 [13]) [µg/mL]	EC50 [15] [µg/mL]	EC50 (Human alphaherpesvirus 2 [16]) [µg/mL]	EC50 [17] [µg/mL]	EC50 [19] [µg/mL]	further results
Nc1ncn(C[C@@H](CO)OCP(=O)(O)O)c(=O)n1	0.71 (≈ 2.53 µM)	> 100	> 100	0.039 (≈ 0.139 µM)	> 100	> 100	225 (≈ 803 µM)	16	> 100	≥ 4	> 100	> 100	0.082 (≈ 0.293 µM)	0.06 (≈ 0.214 µM)	0.23 (≈ 0.821 µM)	0.24 (≈ 0.857 µM)	> 100	0.45 (≈ 1.61 µM)	> 100	> 100	CC50 (CCRF-CEM): 30 µg/mL (≈ 107 µM); EC50 (HeLa): > 100 µg/mL; EC50 (Vero): > 100 µg/mL; EC50 [11]: 20 µg/mL (≈ 71.4 µM); MCC (MOLT-3; [23]): 16 µg/mL; EC50 [14]: > 20 µg/mL; EC50 [18]: 20 µg/mL (≈ 71.4 µM)
Nc1ncn(C[C@H]2COP(=O)(O)CO2)c(=O)n1	–	> 200	> 200	0.04 (≈ 0.153 µM)	> 200	> 100	> 100	200	> 200	> 20	> 200	> 200	0.06 (≈ 0.229 µM)	0.12 (≈ 0.458 µM)	0.07 (≈ 0.267 µM)	0.48 (≈ 1.83 µM)	> 200	0.61 (≈ 2.33 µM)	> 200	> 200	MCC (HeLa): > 200 µg/mL; MCC at 72 h [20]: > 200 µg/mL; MCC (MOLT-3; [23]): 33 µg/mL; MCC at 72 h [14]: 100 µg/mL
CCCCCCCCCCCCCCCCOCCOP1(=O)CO[C@@H](Cn2cnc(N)nc2=O)CO1 (stereo partly specified)	< 0.512	16 (≈ 30.2 µM)	16 (≈ 30.2 µM)	0.0008 (≈ 0.00151 µM)	16 (≈ 30.2 µM)	16	–	–	> 3.2	> 4	16 (≈ 30.2 µM)	16 (≈ 30.2 µM)	0.00014 (≈ 0.000264 µM)	0.0014 (≈ 0.00264 µM)	0.00038 (≈ 0.000716 µM)	0.004 (≈ 0.00754 µM)	> 3.2	0.082 (≈ 0.155 µM)	> 3.2	> 3.2	CC50 (HEL [5]): 6.4 µg/mL (≈ 12.1 µM); MCC [6]: 1.6 µg/mL; CC50 (CCRF-CEM): 2 µg/mL (≈ 3.77 µM); MCC (HeLa): 16 µg/mL; MCC at 72 h [20]: 80 µg/mL; EC50 [11]: > 0.8 µg/mL; MCC (MOLT-3): 0.56 µg/mL; MCC at 72 h [14]: 20 µg/mL; EC50 [18]: > 0.8 µg/mL
CCCCCCCCCCCCCCCCCCOP1(=O)CO[C@@H](Cn2cnc(N)nc2=O)CO1 (stereo partly specified)	0.051 (≈ 0.0991 µM)	> 8	> 8	0.009 (≈ 0.0175 µM)	> 8	8	> 100	≥ 5	> 40	> 4	> 8	> 8	0.0014 (≈ 0.00272 µM)	0.04 (≈ 0.0777 µM)	0.0037 (≈ 0.00719 µM)	1.31 (≈ 2.55 µM)	> 1.6	1.66 (≈ 3.23 µM)	> 40	> 40	CC50 (CCRF-CEM): 12 µg/mL (≈ 23.3 µM); EC50 (HeLa): 200 µg/mL (≈ 389 µM); EC50 (Vero): 40 µg/mL (≈ 77.7 µM); EC50 [11]: > 20 µg/mL; MCC (MOLT-3; [23]): 0.8 µg/mL; EC50 [14]: 20 µg/mL (≈ 38.9 µM); EC50 [18]: > 20 µg/mL
CC(C)(C)C(=O)OCOP1(=O)CO[C@@H](Cn2cnc(N)nc2=O)CO1 (stereo partly specified)	0.069 (≈ 0.183 µM)	> 100	> 100	0.02 (≈ 0.0531 µM)	> 100	> 40	14 (≈ 37.2 µM)	4	> 20	> 20	> 100	> 100	0.067 (≈ 0.178 µM)	0.11 (≈ 0.292 µM)	0.061 (≈ 0.162 µM)	0.24 (≈ 0.638 µM)	> 20	0.32 (≈ 0.85 µM)	> 20	> 20	CC50 (CCRF-CEM): 18 µg/mL (≈ 47.8 µM); MCC (HeLa): 100 µg/mL; MCC at 72 h [20]: > 100 µg/mL; EC50 [11]: > 20 µg/mL; MCC (MOLT-3; [23]): ≥ 4 µg/mL; MCC at 72 h [14]: 100 µg/mL; EC50 [18]: > 20 µg/mL
Nc1ncnc2c1ncn2C[C@H](O)CO [(S)-DHPA]	–	> 200	> 200	–	200 (≈ 956 µM)	–	–	–	> 200	–	> 200	> 200	–	–	–	–	–	–	120 (≈ 574 µM)	> 200	MCC (HeLa): > 200 µg/mL; MCC at 72 h [20]: > 200 µg/mL
